Laboratory results published in US8575201B2 (Boehringer Ingelheim International GmbH, priority 2010, dated 2013).

Key:
[1] = target: recombinant human FLAP protein (Homo sapiens (Human), UniProt P20292); test: FLAP binding assay (Scintillation Proximity Assay, displacement of [125I]L-691,831); settings: read-out: FLAP SPA IC50
Summary of the method: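 Scintillation proximity displacement of an iodinated (125I) FLAP inhibitor by test compounds, using 100,000×g membrane fraction from lysed cells. Final beads 200 μg/well and protein 5 μg/well; plates shaken 2 h before reading.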

[2] = system: synthesis of LTB4 in human whole blood; test: Human whole blood LTB4 production inhibition assay; type: cell-based; settings: calcimycin stimulated, read-out: hWB LTB4 IC50
Summary of the method: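 Steps: compound plus heparinized human whole blood, 15 min at 37° C; add calcimycin to 20 μM final; incubate another 30 min at 37° C; centrifuge at low speed and collect plasma; measure LTB4 with a homogeneous time-resolved fluorescence immunoassay.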

Chain of recombinant human FLAP protein (P20292 whole entry): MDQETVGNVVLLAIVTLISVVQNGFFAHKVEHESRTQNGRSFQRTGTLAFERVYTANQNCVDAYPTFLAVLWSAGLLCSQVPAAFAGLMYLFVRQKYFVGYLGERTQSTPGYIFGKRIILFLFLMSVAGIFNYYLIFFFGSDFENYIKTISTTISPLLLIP

IC50 [1] [nM]	IC50 [2] [nM]	Structure (SMILES)
200	> 5000	Nc1ncc(-c2ccc(C3(c4noc(-c5nc[nH]n5)n4)CCC3)cn2)cn1 [Example 120, 5-(5-{1-[5-(1H-1,2,4-triazol-3-yl)-1,2,4-oxadiazol-3-yl]cyclobutyl}pyridin-2-yl)pyrimidin-2-amine]
28	1800	Cc1cc(-c2nc(C3(c4ccc(-c5cnc(N)nc5)nc4)CCC3)no2)n(C)n1 [Example 121, 5-(5-{1-[5-(1,3-dimethyl-1H-pyrazol-5-yl)-1,2,4-oxadiazol-3-yl]cyclobutyl}pyridin-2-yl)pyrimidin-2-amine]
28	3800	CNc1ncccc1-c1nc(C2(c3ccc(-c4cnc(N)nc4)nc3)CCC2)no1 [Example 122, 5-[5-(1-{5-[2-(methylamino)pyridin-3-yl]-1,2,4-oxadiazol-3-yl}cyclobutyl)pyridin-2-yl]pyrimidin-2-amine]
31	790	Nc1ncc(-c2ccc(C3(c4noc(-c5cncs5)n4)CCC3)cn2)cn1 [Example 123, 5-(5-{1-[5-(1,3-thiazol-5-yl)-1,2,4-oxadiazol-3-yl]cyclobutyl}pyridin-2-yl)pyrimidin-2-amine]
11	210	Cn1nccc1-c1nc(C2(c3ccc(-c4cnc(N)nc4)nc3)CCC2)no1 [Example 124, 5-(5-{1-[5-(1-methyl-1H-pyrazol-5-yl)-1,2,4-oxadiazol-3-yl]cyclobutyl}pyridin-2-yl)pyrimidin-2-amine]
1.8	160	Nc1ncc(-c2ccc(C3(c4noc(-c5ccc(N6CCNC(=O)C6)nc5)n4)CCC3)cn2)cn1 [Example 125, 4-[5-(3-{1-[6-(2-aminopyrimidin-5-yl)pyridin-3-yl]cyclobutyl}-1,2,4-oxadiazol-5-yl)pyridin-2-yl]piperazin-2-one]
34	> 5000	CN(C)c1ncccc1-c1nc(C2(c3ccc(-c4cnc(N)nc4)nc3)CCC2)no1 [Example 126, 5-[5-(1-{5-[2-(dimethylamino)pyridin-3-yl]-1,2,4-oxadiazol-3-yl}cyclobutyl)pyridin-2-yl]pyrimidin-2-amine]
40	640	Cn1ccc(-c2nc(C3(c4ccc(-c5cnc(N)nc5)nc4)CCC3)no2)n1 [Example 127, 5-(5-{1-[5-(1-methyl-1H-pyrazol-3-yl)-1,2,4-oxadiazol-3-yl]cyclobutyl}pyridin-2-yl)pyrimidin-2-amine]
66	2700	Nc1ncc(-c2ccc(C3(c4noc(-c5cccnc5N5CCOCC5)n4)CCC3)cn2)cn1 [Example 128, 5-[5-(1-{5-[2-(morpholin-4-yl)pyridin-3-yl]-1,2,4-oxadiazol-3-yl}cyclobutyl)pyridin-2-yl]pyrimidin-2-amine]
47	630	Nc1ncc(-c2ccc(C3(c4noc(-c5cnccn5)n4)CCC3)cn2)cn1 [Example 129, 5-(5-{1-[5-(pyrazin-2-yl)-1,2,4-oxadiazol-3-yl]cyclobutyl}pyridin-2-yl)pyrimidin-2-amine]
26	350	Cc1cnc(-c2nc(C3(c4ccc(-c5cnc(N)nc5)nc4)CCC3)no2)cn1 [Example 130, 5-(5-{1-[5-(5-methylpyrazin-2-yl)-1,2,4-oxadiazol-3-yl]cyclobutyl}pyridin-2-yl)pyrimidin-2-amine]
52	300	Cn1cnc(-c2nc(C3(c4ccc(-c5cnc(N)nc5)nc4)CCC3)no2)c1 [Example 131, 5-(5-{1-[5-(1-methyl-1H-imidazol-4-yl)-1,2,4-oxadiazol-3-yl]cyclobutyl}pyridin-2-yl)pyrimidin-2-amine]
46	370	Nc1ncc(-c2ccc(C3(c4noc(-c5cn[nH]c5)n4)CCC3)nc2)cn1 [Example 132, 5-(6-{1-[5-(1H-pyrazol-4-yl)-1,2,4-oxadiazol-3-yl]cyclobutyl}pyridin-3-yl)pyrimidin-2-amine]
